Laboratory results published in patent US20140187570A1, “NOVEL FORMULATIONS OF PYRIMETHANIL, AND THEIR USE IN TREATMENT OF CROPS” (XEDA INTERNATIONAL, priority 2011, published 2014).

How the values were obtained:
[1] = test system: Monilinia fructicola strain resistant to pyrimethanil; test: In vitro growth inhibition of the halo on PDA Petri dishes, resistant strain; format: cell-based; conditions: dose 250 ml/hl
Experimental: The object of the study was to determine the efficacy of combinations according to the invention against the phytopathogenic fungus Monilinia fructicola, compared to pyrimethanil alone.
The efficacy of the combinations against Monilinia fructicola was determined by determining the inhibition of growth of the halo in accordance with various general methods (ISO 6887: 2003; ISO 7218: 2007; ISO 7954: 1987).
The samples were added to the artificial medium and were mixed gently prior to the solidification of the agar solution.
A small quantity of fungal spores was placed at the centre of the potato dextrose agar (PDA) in Petri dishes at 25±1° C. for 5-6 days. At the end of the incubation, the inhibition of the halo formed was measured, compared with untreated PDA Petri dishes (control).
The results are expressed as the percentage of incidence of the infestation, and the percentage of efficacy of the product tested.
Monilinia fructicola—Strain Resistant to Pyrimethanil: […]

[2] = test system: Geotrichum candidum; test: Fungicidal activity on treated oranges (Example 5); format: in vivo; conditions: oranges treated with pyrimethanil alone
Experimental: Oranges are separated into three lots, and are treated as follows: • Lot 1 (control): oranges not treated; • Lot 2: oranges treated with pyrimethanil alone; • Lot 3: oranges treated with 250 g of the formulation according to Example 2 diluted in one hectolitre of water.

**Q.** `Cc1cc(C)nc(Nc2ccccc2)n1` [pyrimethanil alone, 2-anilino-4,6-dimethylpyrimidine] was tested. Which “Efficacy (%)” value [1] did it give?
**A.** 45%

**Q.** And the “level of Geotrichum candidum compared with control lot” value [2]?
**A.** same level of Geotrichum candidum as the control lot
